Data set [1] has as its system MS-NASH mice. In words: High dose CCl4 (0.2 mL/kg) twice weekly for 3 weeks in MS-NASH mice on WDF. The class given is in vivo, mouse. From the text: (§1) Male MS-NASH (formally FATZO) mice were developed by Crown Bioscience as the new generation of mouse model with obese, metabolic disorder, diabetes and NAFLD/NASH that is more translatable to human diseases. The animals for this study were bred housed individually in IVC cages (Taicang, China) or open ventilated cages (Indianapolis, Ind.), and fed control diet (CD, Purina 5008 chow, LabDiet, St. Louis, Mo.) with distilled water ad libitum for the first 8 weeks after birth, then, stratified into different experimental groups based on body weight, serum ALT and AST. Room temperature was monitored and maintained at 22-26° C. with a 12-hour light cycle (06:00-18:00). C57B1/6J mice (The Jackson Laboratory, Ellsworth, Maine) were used as control strain and housed under the same conditions. All mice were maintained and treated in accordance with the guidelines of Association for Assessment and Accreditation of Laboratory Animal Care (AAALAC), and experimental protocols approved by the Institutional Animal Care and Use Committee (IACUC).
(§2) In all the experiments, body weights were recorded every 4 weeks. At the end of the experiments, all mice were euthanized by CO2 inhalation and confirmed with cervical dislocation approximately 24 hours after the last CCl4 administration.
(§3) Blood samples: Blood samples during the course of the experiment were collected from the tail or at the end of the experiment from cardiac puncture, from which, serum prepared for measuring AST and ALT by a clinical analyzer (Beckman-Coulter AU480; Brea, Calif.). In the low dose CCl4 repeated treatment group, in-life blood samples were taken—24 hours, and terminal blood samples taken, —24 hours after CCl4 doing, respectively. A separate experiment was performed to observe the acute time course at 24, 48 and 72 hours in response to a single dose of CCl4 at 0.2 mL/kg in MS-NASH mice on CD.
(§4) Tissue processing: The liver tissues were fixed in 10% neutral buffered formalin (NBF) at 4° C. for 24 hours followed by baths of standard concentrations of alcohol then xylene to prepare the tissues for paraffin embedding. After being embedded in paraffin and cooled, five-micron sections were cut and stained for routine H&E and Picric Sirius Red.
(§5) Semi-quantitative scoring by a pathologist: The digital images were evaluated by a well-trained research pathologist blind of different study groups with the standard NASH criteria for semi-quantitative scoring commonly used in preclinical animal models and in patients. Hepatosteatosis, lobular inflammation, and hepatocyte balloon degeneration were scored individually from the H&E staining and then summarized as a standard NAFLD Activity Score (NAS). Fibrosis score was assessed systemically with pattern recognition from PSR staining. Three representative areas per liver were examined and the scores of each parameter from individual animal were averaged.
Computerized quantitative analysis: Computer software with […] (AI) machine learning algorithm for histology analysis from Halo (Indica Labs, Albuquerque, N. Mex.) or ImageDx (Reveal Biosciences, San Diego, Calif.) were used to analyze digitally scanned images of H&E and PSR staining for quantitative analysis of steatosis, ballooning, inflammation or fibrosis in a set of the same slides evaluated by the pathologist. The analysis process included automated tissue identification, followed by segmentation of regions of interest for quantification of the following metrics: 1) Steatosis percentage: the area of total lipid accumulation subcategorized micro- or macro-vesicular within the entire section area; 2) Ballooning hepatocyte density: the density of ballooning hepatocytes within the entire section area; 3) Inflammatory cell density: the total number of inflammatory cells within the entire section area. All 3 parameters above were analyzed in the H&E stained section. 4)Fibrosis percentage: the total fibrosis area within the entire section area in the PSR stained section. […]

Data set [2] relates to MS-NASH mice. The data set is described as follows: Low dose CCl4 (0.08 mL/kg) twice weekly for 8 weeks in MS-NASH mice on WDF. The class given is in vivo, mouse.
Text: as §1, §2, §3
Liver contents: The right lobe of the liver (— 200 mg/animal) was collected and snap frozen in liquid nitrogen, placed in Lysing Matrix D Tubes with distilled water at 20% concentration (MP Biomedicals, Santa Anna, CA), homogenized in a Fastprep-FP120 cell disrupter (Thermo Fisher Savant) in cold condition for 30 seconds. The liver contents of triglyceride and cholesterol were analyzed by a clinical analyzer (Beckman-Coulter AU480) within 30 min of sample preparation.
as §4, §5
Computerized quantitative analysis: Computer software with […] (AI) machine learning algorithm for histology analysis from Halo (Indica Labs, Albuquerque, N. Mex.) or ImageDx (Reveal Biosciences, San Diego, Calif.) were used to analyze digitally scanned images of H&E and PSR staining for quantitative analysis of steatosis, ballooning, inflammation or fibrosis in a set of the same slides evaluated by the pathologist. […]

The subject of data set [3] is MS-NASH mice. The data set is described as follows: Survival rate in MS-NASH mice on WDF under CCl4. The class given is in vivo, mouse. The procedure: (§6) All values are reported as Mean±SEM, unless noted otherwise. Model characterization were compared in MS-NASH mice on CD or WDF with or without CCl4; and effects of OCA were compared to vehicle with One-Way ANOVA for multiple groups or Holm-Sidak t-test for 2 groups. Survival curves of total MS-NASH mice and C57B1/6 mice were compared using Log-rank test for trend. Parametric correlation tests were conducted between pathologist scores and ImageDx quantitative analysis using Pearson correlation coefficient r. Statistical differences were denoted as p<0.05 or p<0.005. Prism software (GraphPad, version 8.3) was used for the statistical analysis and graphing.
(§7) This example illustrates survival rate in MS-NASH and C57B1/6 mice on WDF and treated high and low dose of CCL4.

Data set [4] has as its system C57B1/6 mice. The data set is described as follows: Survival rate in C57B1/6 mice on WDF under CCl4. In kind it is in vivo, mouse. The settings on record: low dose CCl4; C57B1/6 compared to MS-NASH mice; trend not statistically significant. The procedure: as §6, §7
The test system of data set [5] is MS-NASH mice. In words: Low dose CCl4 (0.08 mL/kg) twice weekly for 8 weeks in MS-NASH mice on WDF. The class given is in vivo, mouse. The settings on record: week 12 and 14, 3 days after CCl4 dosing, vs mice on WDF only.
The test system of another data set is mice model. The settings on record: high chemical dosage (0.8-1.0 ml/kg) required to generate liver fibrosis phenotype; cited from earlier work.
Data set [6] concerns MS-NASH mice. The data set is described as follows: Therapeutic effects of OCA in WDF fed MS-NASH mice treated low dose CCl4. In kind it is in vivo, mouse. To be noted: OCA 30 mg/kg orally once daily 8 weeks vs vehicle.
Text: as §1
(§8) In all the experiments, body weights were recorded every 4 weeks. […]
(§9) All values are reported as Mean±SEM, unless noted otherwise. […] Parametric correlation tests were conducted between pathologist scores and ImageDx quantitative analysis using Pearson correlation coefficient r. […]

Data set [7] deals with C57B1/6 mice. In words: Therapeutic effects of OCA in WDF fed C57B1/6 mice treated low dose CCl4. The class given is in vivo, mouse. The settings on record: OCA 30 mg/kg orally once daily 8 weeks vs vehicle.
Text: as §1, §8, §9

The mark [8] stands for this setting: CCl4 0.2 mL/kg IP twice weekly 3 weeks, vs CD or WDF without CCl4.
The mark [9] stands for this setting: CCl4 0.2 mL/kg twice weekly 3 weeks, MS-NASH mice on WDF.
Setting [10] is: CCl4 0.2 mL/kg twice weekly 3 weeks, measured 24 hours after the last dose.
[11] abbreviates: CCl4 0.08 mL/kg twice weekly 8 weeks, WDF vs WDF+CCl4.
Setting [12] is: CCl4 0.08 mL/kg twice weekly 8 weeks, end of study.
The mark [13] stands for this setting: CCl4 0.08 mL/kg twice weekly 8 weeks, with vs without CCl4.
[14] abbreviates: CCl4 0.08 mL/kg, 24 hours after the last dose at end of experiment, compared to high dose CCl4.
Where [15] appears, read: WDF + CCl4 0.08 mL/kg twice weekly.

Turning to `ClC(Cl)(Cl)Cl` [CCl4, carbon tetrachloride], in the data set with MS-NASH mice [1] (setting [8]), the caloric intake entry is reported as “significantly reduced” and the food intake entry is reported as “significantly reduced”. In addition, the body weight entry with MS-NASH mice [1] (CCl4 0.2 mL/kg IP twice weekly 3 weeks, vs MS-NASH mice on CD or WDF without CCl4) was “significantly reduced”. For the same compound, in the data set on MS-NASH mice [1] (setting [9]), the “fibrosis area by computer analysis software (Halo) from PSR images” value was approximately 8%; the “histopathology images (H&E, PSR)” value was “aggravated liver injury and centrilobular fibrosis”; the “pathology scores by the pathologist (steatosis, inflammation, ballooning, overall NAS, fibrosis score)” value is “failed to detect such enhanced pathology”. For the same compound, in the data set on MS-NASH mice [1] (setting [10]), the “serum ALT” value is on record as “dramatically elevated” and the “serum AST” value was “dramatically elevated”. Besides, in the data set with MS-NASH mice [2] (setting [11]), the “liver fibrosis score evaluated by the pathologist” value is listed as “significantly aggravated” and the “other aspects of liver pathology (NAS scores by the pathologist)” value is “little influence”. In the data set with MS-NASH mice [2] (setting [12]), the “liver contents of cholesterol” value is given as “significantly reduced” and the liver weight result is “significantly reduced”. Also, in the data set on MS-NASH mice [2] (CCl4 0.08 mL/kg twice weekly 8 weeks, vs mice without CCl4), the body weight entry is listed as “reduced”. For the same compound, in the data set with MS-NASH mice [2] (setting [13]), the “fibrosis area by Reveal ImageDx” value was “larger”; the “steatosis area, inflammatory cell infiltration and degenerated liver cell counts by Reveal ImageDx” value is listed as “no significant difference”. Further, in the data set with MS-NASH mice [2] (setting [14]), the “elevation of serum ALT” value is recorded as “not as dramatic” and the “elevation of serum AST” value is given as “not as dramatic”. Besides, the “NAFLD progression and fibrosis development” value with MS-NASH mice [2] (MS-NASH mice fed WDF with 0.08 ml/kg CCl4) is “accelerated”. Further, the death with MS-NASH mice [3] (high dose CCl4 (0.2 mL/kg twice weekly), within the first 3 weeks) is recorded as approximately 20%. The same compound had a survival rate in the data set with MS-NASH mice [3] (lower dose CCl4 (0.08 mL/kg twice weekly), end of 8-week experimental duration) of 87.5%. Further, in the data set with C57B1/6 mice [4], the survival rate entry is recorded as “tended to be lower”. Moreover, in the data set with MS-NASH mice [5], the “in-life serum ALT level” value is recorded as “significantly lower” and the “in-life serum AST level” value is recorded as “significantly lower”. In the data set with mice model, the body weight entry was “severe body weight loss”.
Consider `CC[C@H]1[C@@H](O)[C@@H]2[C@H](CC[C@]3(C)[C@@H]([C@H](C)CCC(=O)O)CC[C@@H]23)[C@@]2(C)CC[C@@H](O)C[C@@H]12` [OCA, obeticholic acid], for which the “serum ALT level” value in the data set on MS-NASH mice [6] and in the data set on C57B1/6 mice [7] was “no significant effect” each time. Further, the body weight entry with MS-NASH mice [6] (setting [15]) and in the data set on C57B1/6 mice [7] (setting [15]) was “no significant effect” in each case.

The values above are taken from patent US20220330529A1, “METHODS FOR GENERATING ANIMAL MODELS FOR NONALCOHOLIC FATTY LIVER DISEASE” (INNOLAND BIOSCIENCES (ZHEJIANG) CO., LTD., priority 2019, published 2022).
